Columns and labels:
[1] = biological target: T1, full-length Plk1 / biotinylated PBIP1 phospho-T78 peptide interaction (Homo sapiens, UniProt P53350); experiment: ELISA-based PBD1-binding inhibition assay; conditions: at least three independent experiments; read-out: ELISA (IC50) Mean ± SEM
T1 construct: HA; EGFP; expressed in transfected cells; host or cells: HEK293A cells infected with adenovirus; total lysates

[2] = tested on: multiple myeloma-derived L363 cells; experiment: Colorimetric MTS cell viability assay; assay type: cell-based; conditions: N.S. = Not significant
Excerpt: • *Data from Park, J. E., et al {Park, 2023 #3387}. **Data from Alverez C. N., et al {Alverez, 2020 #3186}. N. S., Not significant; N. D., Not determined. ^a IC50 values determined from at least three independent experiments except as noted in parentheses. b A colorimetric MTS cell viability assay carried out using multiple myeloma-derived L363 cells.

[3] = Conversion of Allopole to Allopole-A under various buffer conditions (mass spectroscopy); assay type: physicochemical; conditions: 100 uM Allopole incubated, RT, 1 h
Experimental: This Example illustrates the conversion of Allopole to Allopole-A under various buffer conditions, RT, 1 h (JE), as set forth in Table 4
Samples were prepared by incubating Allopole in the indicated buffer conditions without or with 5 mM GSH for 1 h, at RT.

[4] = biological target: 5-HT1A (Homo sapiens, UniProt P08908); experiment: Off-target primary and secondary screen; assay type: binding; conditions: 10 mM sample
[5] = biological target: 5-HT1B (Homo sapiens, UniProt P28222); experiment: Off-target primary and secondary screen; assay type: binding; conditions: 10 mM sample
[6] = biological target: 5-HT1D (Homo sapiens, UniProt P28221); experiment: Off-target primary and secondary screen; assay type: binding; conditions: 10 mM sample
[7] = biological target: 5-HT2A (Homo sapiens, UniProt P28223); experiment: Off-target primary and secondary screen; assay type: binding; conditions: 10 mM sample
[8] = biological target: 5-HT2B (Homo sapiens, UniProt P41595); experiment: Off-target primary and secondary screen; assay type: binding; conditions: 10 mM sample
[9] = biological target: 5-HT3 (Homo sapiens, UniProt P46098); experiment: Off-target primary and secondary screen; assay type: binding; conditions: 10 mM sample
[10] = biological target: 5-HT5A (Homo sapiens, UniProt P47898); experiment: Off-target primary and secondary screen; assay type: binding; conditions: 10 mM sample
[11] = biological target: 5-HT6 (Homo sapiens, UniProt P50406); experiment: Off-target primary and secondary screen; assay type: binding; conditions: 10 mM sample
[12] = biological target: 5-HT7A (Homo sapiens, UniProt P34969); experiment: Off-target primary and secondary screen; assay type: binding; conditions: 10 mM sample
[13] = biological target: Alpha1B (Homo sapiens, UniProt P35368); experiment: Off-target primary and secondary screen; assay type: binding; conditions: 10 mM sample
[14] = biological target: Aipha1D (Homo sapiens, UniProt P25100); experiment: Off-target primary and secondary screen; assay type: binding; conditions: 10 mM sample
[15] = biological target: Alpha2A (Homo sapiens, UniProt P08913); experiment: Off-target primary and secondary screen; assay type: binding; conditions: 10 mM sample
[16] = biological target: Alpha2B (Homo sapiens, UniProt P18089); experiment: Off-target primary and secondary screen; assay type: binding; conditions: 10 mM sample
[17] = biological target: Beta2 (Homo sapiens, UniProt P07550); experiment: Off-target primary and secondary screen; assay type: binding; conditions: 10 mM sample
[18] = biological target: Beta3 (Homo sapiens, UniProt P13945); experiment: Off-target primary and secondary screen; assay type: binding; conditions: 10 mM sample
[19] = biological target: D1 (Homo sapiens, UniProt P21728); experiment: Off-target primary and secondary screen; assay type: binding; conditions: 10 mM sample
[20] = biological target: D2 (Homo sapiens, UniProt P14416); experiment: Off-target primary and secondary screen; assay type: binding; conditions: 10 mM sample
[21] = biological target: D4 (Homo sapiens, UniProt P21917); experiment: Off-target primary and secondary screen; assay type: binding; conditions: 10 mM sample
[22] = biological target: D5 (Homo sapiens, UniProt P21918); experiment: Off-target primary and secondary screen; assay type: binding; conditions: 10 mM sample
[23] = biological target: DAT (Homo sapiens, UniProt Q01959); experiment: Off-target primary and secondary screen; assay type: binding; conditions: 10 mM sample
[24] = biological target: H1 (Homo sapiens, UniProt P35367); experiment: Off-target primary and secondary screen; assay type: binding; conditions: 10 mM sample
[25] = biological target: H2 (Homo sapiens, UniProt P25021); experiment: Off-target primary and secondary screen; assay type: binding; conditions: 10 mM sample
[26] = biological target: H3 (Homo sapiens, UniProt Q9Y5N1); experiment: Off-target primary and secondary screen; assay type: binding; conditions: 10 mM sample
[27] = biological target: H4 (Homo sapiens, UniProt Q9H3N8); experiment: Off-target primary and secondary screen; assay type: binding; conditions: 10 mM sample
[28] = biological target: KOR (Homo sapiens, UniProt P41145); experiment: Off-target primary and secondary screen; assay type: binding; conditions: 10 mM sample
[29] = biological target: M4 (Homo sapiens, UniProt P08173); experiment: Off-target primary and secondary screen; assay type: binding; conditions: 10 mM sample
[30] = biological target: MOR (Homo sapiens, UniProt P35372); experiment: Off-target primary and secondary screen; assay type: binding; conditions: 10 mM sample
[31] = biological target: PBR (Homo sapiens, UniProt P30536); experiment: Off-target primary and secondary screen; assay type: binding
[32] = biological target: Sigma 1 (Homo sapiens, UniProt Q99720); experiment: Off-target primary and secondary screen; assay type: binding; conditions: 10 mM sample
[33] = biological target: Sigma 2 (Homo sapiens, UniProt Q5BJF2); experiment: Off-target primary and secondary screen; assay type: binding; conditions: 10 mM sample
[34] = buffer 2 (1x PBS pH = 7.4), no GSH
[35] = buffer 3 (20 mM HEPES pH = 7.0), no GSH

Chain of PBR (P30536 whole entry, species assumed): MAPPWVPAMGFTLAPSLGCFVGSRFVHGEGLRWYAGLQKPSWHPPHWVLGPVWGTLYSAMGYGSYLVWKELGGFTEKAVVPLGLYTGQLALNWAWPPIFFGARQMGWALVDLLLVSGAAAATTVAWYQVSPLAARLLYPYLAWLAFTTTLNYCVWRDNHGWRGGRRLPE
Chain of Alpha2B (P18089 whole entry): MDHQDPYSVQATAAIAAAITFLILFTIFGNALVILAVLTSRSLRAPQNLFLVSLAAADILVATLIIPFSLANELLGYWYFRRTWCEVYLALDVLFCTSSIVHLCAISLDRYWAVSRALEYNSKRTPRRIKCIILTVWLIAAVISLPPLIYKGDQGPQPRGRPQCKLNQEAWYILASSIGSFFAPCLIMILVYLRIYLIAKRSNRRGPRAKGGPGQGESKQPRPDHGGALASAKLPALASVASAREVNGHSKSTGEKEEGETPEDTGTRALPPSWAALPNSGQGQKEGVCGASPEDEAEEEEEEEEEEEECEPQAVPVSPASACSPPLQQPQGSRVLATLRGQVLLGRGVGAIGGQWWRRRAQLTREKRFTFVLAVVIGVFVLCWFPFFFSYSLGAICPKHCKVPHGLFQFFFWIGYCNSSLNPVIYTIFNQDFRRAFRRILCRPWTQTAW
Chain of Aipha1D (P25100 whole entry): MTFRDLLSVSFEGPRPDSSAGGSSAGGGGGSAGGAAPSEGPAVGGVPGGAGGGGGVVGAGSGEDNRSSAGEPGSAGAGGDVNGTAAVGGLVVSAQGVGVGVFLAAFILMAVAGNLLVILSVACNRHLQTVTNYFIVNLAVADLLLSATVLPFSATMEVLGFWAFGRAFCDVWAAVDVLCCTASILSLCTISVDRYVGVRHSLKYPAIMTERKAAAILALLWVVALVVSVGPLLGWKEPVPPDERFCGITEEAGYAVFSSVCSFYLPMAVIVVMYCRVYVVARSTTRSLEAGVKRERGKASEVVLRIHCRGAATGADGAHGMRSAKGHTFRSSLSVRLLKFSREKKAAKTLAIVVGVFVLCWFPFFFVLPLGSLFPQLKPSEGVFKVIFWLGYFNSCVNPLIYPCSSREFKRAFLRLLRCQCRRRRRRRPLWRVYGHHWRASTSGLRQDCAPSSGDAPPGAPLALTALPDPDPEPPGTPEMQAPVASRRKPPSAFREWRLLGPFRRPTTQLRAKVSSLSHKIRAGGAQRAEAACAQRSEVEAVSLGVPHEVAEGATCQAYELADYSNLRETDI
Chain of Alpha1B (P35368 whole entry): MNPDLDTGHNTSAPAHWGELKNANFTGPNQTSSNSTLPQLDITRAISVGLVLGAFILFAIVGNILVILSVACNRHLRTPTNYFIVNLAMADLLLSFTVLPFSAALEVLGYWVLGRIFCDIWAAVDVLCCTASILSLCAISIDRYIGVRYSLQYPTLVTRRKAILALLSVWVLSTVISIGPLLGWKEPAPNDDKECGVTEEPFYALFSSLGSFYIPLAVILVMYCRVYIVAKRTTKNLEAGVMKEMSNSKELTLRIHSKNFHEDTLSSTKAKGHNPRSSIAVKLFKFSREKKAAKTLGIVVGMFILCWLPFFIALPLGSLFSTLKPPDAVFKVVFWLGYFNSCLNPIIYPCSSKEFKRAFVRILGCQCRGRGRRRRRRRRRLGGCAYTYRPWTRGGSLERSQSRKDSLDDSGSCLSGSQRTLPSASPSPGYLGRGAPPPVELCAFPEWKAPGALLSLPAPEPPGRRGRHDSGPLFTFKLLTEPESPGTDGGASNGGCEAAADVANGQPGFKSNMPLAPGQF
Chain of 5-HT1A (P08908 whole entry, species assumed): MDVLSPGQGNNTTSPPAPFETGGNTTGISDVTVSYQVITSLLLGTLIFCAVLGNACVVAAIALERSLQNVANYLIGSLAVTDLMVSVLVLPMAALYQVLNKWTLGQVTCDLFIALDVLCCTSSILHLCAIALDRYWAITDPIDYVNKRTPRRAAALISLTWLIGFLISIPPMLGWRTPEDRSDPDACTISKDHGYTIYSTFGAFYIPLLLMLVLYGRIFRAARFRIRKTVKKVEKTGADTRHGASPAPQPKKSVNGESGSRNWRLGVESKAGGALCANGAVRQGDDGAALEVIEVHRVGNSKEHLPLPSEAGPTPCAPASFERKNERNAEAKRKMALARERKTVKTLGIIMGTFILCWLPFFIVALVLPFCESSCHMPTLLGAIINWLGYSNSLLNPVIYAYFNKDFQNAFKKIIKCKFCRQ
Chain of 5-HT3 (P46098 24-478, species assumed): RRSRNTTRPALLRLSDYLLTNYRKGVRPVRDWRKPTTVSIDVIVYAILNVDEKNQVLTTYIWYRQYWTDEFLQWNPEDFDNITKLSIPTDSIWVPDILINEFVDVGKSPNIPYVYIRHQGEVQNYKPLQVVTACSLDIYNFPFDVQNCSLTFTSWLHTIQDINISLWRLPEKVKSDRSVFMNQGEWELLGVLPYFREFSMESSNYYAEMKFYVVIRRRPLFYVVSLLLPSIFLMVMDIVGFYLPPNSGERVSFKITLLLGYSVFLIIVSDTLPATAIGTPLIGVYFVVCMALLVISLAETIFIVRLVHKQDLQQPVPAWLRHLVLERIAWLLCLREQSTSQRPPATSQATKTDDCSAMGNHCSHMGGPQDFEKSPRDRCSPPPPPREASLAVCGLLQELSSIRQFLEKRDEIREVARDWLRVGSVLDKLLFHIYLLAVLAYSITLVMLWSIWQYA
Chain of D2 (P14416 whole entry): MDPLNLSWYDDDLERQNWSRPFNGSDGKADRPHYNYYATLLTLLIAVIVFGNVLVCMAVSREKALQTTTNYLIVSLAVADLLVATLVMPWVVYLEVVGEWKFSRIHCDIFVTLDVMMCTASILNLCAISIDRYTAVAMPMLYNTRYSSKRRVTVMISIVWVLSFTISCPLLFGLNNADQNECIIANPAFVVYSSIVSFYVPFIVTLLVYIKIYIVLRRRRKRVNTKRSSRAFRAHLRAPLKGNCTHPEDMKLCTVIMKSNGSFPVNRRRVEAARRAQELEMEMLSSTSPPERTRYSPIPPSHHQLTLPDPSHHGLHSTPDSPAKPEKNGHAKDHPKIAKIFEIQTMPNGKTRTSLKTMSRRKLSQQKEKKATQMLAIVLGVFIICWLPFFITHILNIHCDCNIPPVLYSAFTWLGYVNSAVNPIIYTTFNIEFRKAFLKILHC
Chain of H1 (P35367 whole entry): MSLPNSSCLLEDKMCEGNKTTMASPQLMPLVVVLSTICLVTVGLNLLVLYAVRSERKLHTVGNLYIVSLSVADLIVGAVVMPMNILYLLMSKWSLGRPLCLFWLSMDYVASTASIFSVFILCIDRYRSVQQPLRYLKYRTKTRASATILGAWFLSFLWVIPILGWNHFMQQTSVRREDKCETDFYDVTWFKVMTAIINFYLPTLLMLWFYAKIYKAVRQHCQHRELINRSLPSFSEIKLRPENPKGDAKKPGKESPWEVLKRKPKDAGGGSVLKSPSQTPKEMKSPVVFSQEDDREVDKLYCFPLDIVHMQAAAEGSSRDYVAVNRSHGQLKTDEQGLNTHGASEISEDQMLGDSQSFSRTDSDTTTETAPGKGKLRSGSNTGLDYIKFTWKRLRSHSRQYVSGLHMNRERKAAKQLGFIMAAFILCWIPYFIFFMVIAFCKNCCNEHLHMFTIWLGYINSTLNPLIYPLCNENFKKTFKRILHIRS
Chain of D4 (P21917 whole entry): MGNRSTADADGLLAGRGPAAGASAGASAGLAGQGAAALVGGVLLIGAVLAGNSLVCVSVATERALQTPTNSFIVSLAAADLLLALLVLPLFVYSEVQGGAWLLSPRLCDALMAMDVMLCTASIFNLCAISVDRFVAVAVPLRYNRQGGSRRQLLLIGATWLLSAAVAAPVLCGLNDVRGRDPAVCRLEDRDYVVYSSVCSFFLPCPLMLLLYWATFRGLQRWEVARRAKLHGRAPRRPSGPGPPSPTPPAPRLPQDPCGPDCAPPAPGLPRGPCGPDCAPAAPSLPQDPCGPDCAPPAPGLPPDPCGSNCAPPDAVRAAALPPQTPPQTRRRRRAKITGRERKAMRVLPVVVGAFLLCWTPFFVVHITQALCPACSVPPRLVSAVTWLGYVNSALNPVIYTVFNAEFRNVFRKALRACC
Chain of 5-HT5A (P47898 whole entry, species assumed): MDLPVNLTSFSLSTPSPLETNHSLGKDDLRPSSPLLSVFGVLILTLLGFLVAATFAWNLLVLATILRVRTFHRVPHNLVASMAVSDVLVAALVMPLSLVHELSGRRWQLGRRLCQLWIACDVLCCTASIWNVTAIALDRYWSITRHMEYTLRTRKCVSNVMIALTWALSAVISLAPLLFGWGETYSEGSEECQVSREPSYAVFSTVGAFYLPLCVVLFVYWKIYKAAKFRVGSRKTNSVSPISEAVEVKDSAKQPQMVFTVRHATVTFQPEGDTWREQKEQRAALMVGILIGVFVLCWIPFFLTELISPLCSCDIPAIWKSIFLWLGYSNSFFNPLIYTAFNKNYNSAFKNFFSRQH
Chain of Sigma 2 (Q5BJF2 whole entry): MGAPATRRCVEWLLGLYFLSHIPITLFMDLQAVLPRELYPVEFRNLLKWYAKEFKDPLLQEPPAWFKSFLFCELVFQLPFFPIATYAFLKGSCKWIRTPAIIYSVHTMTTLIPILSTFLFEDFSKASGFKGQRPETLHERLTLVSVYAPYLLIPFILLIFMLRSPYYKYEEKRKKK
Chain of Sigma 1 (Q99720 whole entry): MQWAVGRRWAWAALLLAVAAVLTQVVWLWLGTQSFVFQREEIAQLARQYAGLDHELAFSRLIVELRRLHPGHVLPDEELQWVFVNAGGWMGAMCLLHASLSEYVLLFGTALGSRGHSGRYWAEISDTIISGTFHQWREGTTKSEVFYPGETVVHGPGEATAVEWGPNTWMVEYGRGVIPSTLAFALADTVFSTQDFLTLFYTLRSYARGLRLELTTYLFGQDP

O=c1c2sc(Cl)cc2n2c(=S)[nH]nc2n1CC1CC1 [Compound 19, 7-Chloro-4-(cyclopropylmethyl)-1-thioxo-2,4-dihydrothieno[2,3-e][1,2,4]triazolo[4,3-a]pyrimidin-5 (1H)-one]
IC50 [1]: 1400 ± 30 nM
Cell efficacy (GI50) Mean ± SD [2]: N.S.
Compound detected ([3]; buffer 1 + 5 mM GSH): 95.4 µmol/L
Compound detected, % of total ([3]; buffer 1 + 5 mM GSH): 95.4 % of total
Compound detected, pk area ([3]; buffer 1 + 5 mM GSH): 1.38E+09
Compound detected [3, 34]: 0.8 µmol/L
Compound detected, % of total [3, 34]: 0.8 % of total
Compound detected, pk area [3, 34]: 4.90E+06
Compound detected ([3]; buffer 2 + 5 mM GSH): 77.9 µmol/L
Compound detected, % of total ([3]; buffer 2 + 5 mM GSH): 77.9 % of total
Compound detected, pk area ([3]; buffer 2 + 5 mM GSH): 5.81E+08
Compound detected [3, 35]: 1.9 µmol/L
Compound detected, % of total [3, 35]: 1.9 % of total
Compound detected, pk area [3, 35]: 1.56E+06
Compound detected ([3]; buffer 3 + 5 mM GSN): 66.9 µmol/L
Compound detected, % of total ([3]; buffer 3 + 5 mM GSN): 66.9 % of total
Compound detected, pk area ([3]; buffer 3 + 5 mM GSN): 1.89E+08
Compound detected ([3]; buffer 3 [sic], no GSH): 1.3 µmol/L
Compound detected, % of total ([3]; buffer 3 [sic], no GSH): 1.3 % of total
Compound detected, pk area ([3]; buffer 3 [sic], no GSH): 9.61E+08
Primary screen AVE (% inhib) ± SD [4]: -20.0 ± 27.4 % inhib
Primary screen AVE (% inhib) ± SD [5]: 17.7 ± 42.2 % inhib
Primary screen AVE (% inhib) ± SD [6]: 22.5 ± 25.6 % inhib
Primary screen AVE (% inhib) ± SD [7]: 37.0 ± 10.4 % inhib
Primary screen AVE (% inhib) ± SD [8]: -17.7 ± 11.2 % inhib
Primary screen AVE (% inhib) ± SD [9]: -3.8 ± 3.1 % inhib
Primary screen AVE (% inhib) ± SD [10]: -1.4 ± 14.4 % inhib
Primary screen AVE (% inhib) ± SD [11]: -5.0 ± 11.7 % inhib
Primary screen AVE (% inhib) ± SD [12]: -88.1 ± 20.8 % inhib
Primary screen AVE (% inhib) ± SD [13]: -7.7 ± 9.7 % inhib
Primary screen AVE (% inhib) ± SD [14]: -9.9 ± 23.4 % inhib
Primary screen AVE (% inhib) ± SD [15]: -6.3 ± 7.9 % inhib
Primary screen AVE (% inhib) ± SD [16]: -6.4 ± 7.1 % inhib
Primary screen AVE (% inhib) ± SD [17]: -2.1 ± 19.7 % inhib
Primary screen AVE (% inhib) ± SD [18]: 17.9 ± 8.6 % inhib
Primary screen AVE (% inhib) ± SD [19]: -17.2 ± 25.0 % inhib
Primary screen AVE (% inhib) ± SD [20]: -27.4 ± 13.1 % inhib
Primary screen AVE (% inhib) ± SD [21]: -24.3 ± 4.4 % inhib
Primary screen AVE (% inhib) ± SD [22]: 28.7 ± 10.7 % inhib
Primary screen AVE (% inhib) ± SD [23]: 43.9 ± 13.0 % inhib
Primary screen AVE (% inhib) ± SD [24]: 11.5 ± 2.8 % inhib
Primary screen AVE (% inhib) ± SD [25]: -27.4 ± 17.1 % inhib
Primary screen AVE (% inhib) ± SD [26]: -18.5 ± 3.8 % inhib
Primary screen AVE (% inhib) ± SD [27]: -4.5 ± 11.4 % inhib
Primary screen AVE (% inhib) ± SD [28]: -0.3 ± 8.7 % inhib
Primary screen AVE (% inhib) ± SD [29]: -8.8 ± 4.8 % inhib
Primary screen AVE (% inhib) ± SD [30]: 30.8 ± 47.5 % inhib
Ki [31]: > 10 µM
Primary screen AVE (% inhib) ± SD ([31]; 10 mM sample): 5.3 ± 8.3 % inhib
Primary screen AVE (% inhib) ± SD [32]: 2.0 ± 21.4 % inhib
Primary screen AVE (% inhib) ± SD [33]: 40.6 ± 9.5 % inhib

From patent publication US20260272934A1 (The United States of America, as represented by the …, priority 2023, published 2026)
